{"source": "patent US10174401B2", "about": "“Methods for binding and precipitating gold using microbial-derived metallophores and their uses” (McMaster University, priority 2013, dated 2019)", "key": {"[1]": {"assay": "TEM imaging of siderophore-gold reactions", "settings": "TEM", "procedure": "Transmission electron microscopy imaging was performed with a JEOL JEM 1299 EX TEMSCAN transmission electron microscope (JEOL, Peabody, Mass., USA) operated at an accelerating voltage of 80 kV. Sample preparation: a 2 μL drop of a diluted (10×) siderophore-gold reaction was deposited over a formvar-coated TEM grid, and was allowed to dry under ambient conditions before being imaged. Gold nanoparticle size distribution was determined using the software, ImageJ."}, "[2]": {"assay": "Transmission electron microscopy of delftibactin A:Au(III) complexes", "settings": "delftibactin A:AuCl3 2:1, 10 min", "text": "Delftibactin A was reacted with AuCl3 with a molar ratio equal to 2:1 for ten minutes. Each separate reaction of delftibactin A with AuCl3 was examined using a Phillips CM-10 transmission electron microscopy operating at 80 kV. The whole-mount sample was absorbed and dried on a formvar-carbon coated 100-square mesh copper grid and rinsed with filter sterilized, de-ionized water to remove any salt precipitates."}, "D. acidovorans ΔdelG [3]": {"system": "D. acidovorans ΔdelG", "assay": "Gold protective comparison of delftibactin A and B (growth curves)", "format": "cell-based, Delftia acidovorans", "settings": "125 μM AuCl3 + 125 μM delftibactin", "procedure": "Twenty microliter reactions were set up as follows: water only, 5 mM AuCl3, 5 mM AuCl3+delftibactin A, and 5 mM AuCl3+delftibactin B. Reactions were initiated with the addition of delftibactin A or B. After 2 h, reactions were serially diluted to 125 μM in ACM containing D. acidovorans ΔdelG diluted 1:1000 from an overnight culture. Optical density was monitored using a TECAN Sunrise™ microplate reader at 600 nm for 36 h. Results are a mean of three growth curves for each condition from a single representative experiment."}, "[4]": {"assay": "Time course of AuCl3 precipitation by delftibactins in absence and presence of FeCl3", "settings": "equimolar 5 mM AuCl3 + 5 mM FeCl3", "procedure": "(§1) Twenty microliter reactions were set up as follows: i) water only, ii) 5 mM delftibactin A, iii) 5 mM AuCl3 iv) 5 mM FeCl3 v) 5 mM AuCl3+5 mM FeCl3 vi) 5 mM delftibactin B+5 mM AuCl3 vii) delftibactin B+5 mM AuCl3+5 mM FeCl3 viii) delftibactin B+5 mM FeCl3. Reactions were initiated by the addition of delftibactin and images were taken at time points indicated. After 2 h, reactions were serially diluted to 30 μM final concentration in ACM containing D. acidovorans ΔdelG diluted 1:1000 from an overnight culture. Optical density was monitored using a TECAN Sunrise™ microplate reader at 600 nm for 36 h. Results are a mean of three growth curves for each condition from a single representative experiment. As a second test of delftibactin protective capacity, D. acidovorans ΔdelG cells from an overnight culture were inoculated 1:1000 into 100 μL ACM in a 96-well plate containing 0 or 10 μM AuCl3, and then provided 0 or 100 μM delftibactin. Cultures were grown for 84 h at 250 rpm at 30° C. in a TECAN Sunrise™ microplate reader, measuring at 600 nm to assess growth. Results are a mean of three growth curves for each condition from a single representative experiment."}, "[5]": {"assay": "Test strip: metallophore on C18-silica TLC plate developed with gold chloride", "settings": "immobilized on C18-silica TLC slide, developed with gold chloride solution", "procedure": "Pictures were taken after 10 min.\nA solution containing gold chloride was used to develop the strip. Pictures were taken at the times indicated."}, "D. acidovorans ΔdelG [6]": {"system": "D. acidovorans ΔdelG", "assay": "Delftibactin-mediated protection against gold toxicity (CFU after acute exposure)", "format": "cell-based, Delftia acidovorans", "settings": "exogenous purified delftibactin 30 sM, 100 μM AuCl3, 30 min", "procedure": "Cultures of D. acidovorans wild type and D. acidovorans ΔdelG were grown in deferrated ACM for 2 days at 30° C. In 96-well plates, 200 μL of wild type or mutant grown culture were incubated in the presence and absence of 100 μM AuCl3. At the same time, the mutant culture was also complemented with […] delftibactin (biological levels) in the presence of 100 μM AuCl3. After 30 minutes, cultures were serially diluted in water and plated on LB agar to determine the colony forming units of D. acidovorans after gold exposure. Results are shown as mean s.d.; n=4; Two-tailed student's t-test."}, "[7]": {"procedure": "The gold-delftibactin A interaction was determined through two separate experiments. First, AuCl3 was held constant at 2.5 mM and the interaction with delftibactin A was monitored by measuring the absorption of AuCl3 remaining in solution after precipitation by delftibactin A through comparison with a standard curve. Briefly, 2.5 mM AuCl3 was incubated with 5, 2.5, 1.25, 0.6125, 0.3063, and 0.1531 mM delftibactin A for 1 h. Solutions were filtered with a 0.22 μM Acrodisc (Pall, USA) to remove insoluble delftibactin A-gold precipitate. 100 μl of the filtered reaction was placed in a 96-well plate and the absorbance was read at 300 nm using a SpectraMax 384 Plus (Molecular Devices, USA). Absorption was compared to an AuCl3 standard curve to determine the concentration of AuCl3 remaining in solution. To monitor the amount of delftibactin A remaining in solution after reaction with gold a similar experiment was conducted. Delftibactin A (2.5 mM) was incubated with 5, 2.5, 1.25, 0.6125, 0.3063, and 0.1531 mM AuCl3 for 1 h. Solutions were filtered similar to above. Reaction mixtures were analyzed using a Waters Alliance 2695 RP-HPLC separations module, equipped with a Waters 2998 photodiode array and a Luna 5u C18 column (250×4.60 mm, Phenomenex). The mobile phase was linear from 2% acetonitrile, 98% water+5 mM (NH4)2CO3 at 2 min to 14% acetonitrile at 18 min at a flow rate of 1 mL/min. […]"}, "[8]": {"assay": "Citrate-gold and delftibactin A-gold comparison", "settings": "room temperature, neutral pH", "procedure": "Stock 10 mM solutions of sodium citrate and purified delftibactin A were mixed with and equimolar solution of AuCl3 and allowed to react at room temperature in 1.5 mL Eppendorf tubes. Photographs were taken from the initial addition of gold to 1 h exposure. Similarly, TEM experiments were performed by mixing 10 mM stock solutions of AuCl3 and either delftibactin A or sodium citrate 1:1 on a formvar-carbon coated 100-square mesh copper grid, imaging after 10 min AuCl3 exposure."}, "[9]": {"assay": "Gold-siderophore reactions (gold nanoparticle formation, gold-iron competition, LC-MS of supernatant)", "procedure": "Ten microliters of the AuCl3 stock solution was aliquoted into separate 200 μL microcentrifuge tubes, followed by the addition of 10 μL of each respective siderophore or metal chelator, where water was used as a control. The reaction was monitored over time and images were taken. After 2 h, a sample of the mixture was diluted 10× and analyzed by transmission electron microscopy (TEM) (see below). The remaining sample was centrifuged at 13,000 rpm for ten minutes. A 10 μL sample of the supernatant was diluted in 90 μL of water and subsequently analyzed by LC-MS. A control of unreacted siderophore and metal chelator of the same concentration was also analyzed for comparison. […] Reactions were monitored similarly. UV-vis spectrums were obtained using a Synergy 4 microplate reader (Biotek)."}, "D. acidovorans ΔdelG [10]": {"system": "D. acidovorans ΔdelG", "assay": "Gold detoxification in chronic exposure by delftibactin A (growth curves)", "format": "cell-based, Delftia acidovorans", "procedure": "as §1"}}, "note": "*1 amine or outer side, *2 acyl side, *3 side chain or, on linkers, in order; H or OH if unused. Where a SMILES comes first, the peptide text is derived from it. [ ]: non-standard residue; d: D form. The star is where a group is joined. ξ: configuration not given here. NH(1-OH-2-oxopiperidin-3-yl) = O=C1C(N*)CCCN1O; ξOrn(N(OH)CHO) = NC(CCCN(O)C=O)C(=O)O; ξAsp(βξ-Me) = CC(C(=O)O)C(N)C(=O)O; X2 = C/C=C(/N[*:1])C(=O)[*:2]; X1 = CC(N)C(O)C(C)C(=O)*", "data": [{"smiles": "C/C=C(/NC(=O)CNC(=O)C(C)NC(=O)C(NC(=O)C(C)C(O)C(C)N)C(C)C(=O)O)C(=O)NC(CCCN(O)C=O)C(=O)NC(C)C(=O)NC(CCCNC(=N)N)C(=O)NC1CCCN(O)C1=O", "note": "(stereo not drawn) [delftibactin A] (X1-[ξAsp(βξ-Me)]AG[X2][ξOrn(N(OH)CHO)]AR-{NH(1-OH-2-oxopiperidin-3-yl)}; configuration not given here)", "values": [{"measurement": "octahedral gold particle formation", "setting": "[1]", "value": "also produces octahedral gold particles"}, {"measurement": "nature of gold precipitate by TEM", "setting": "[2]", "value": "abundance of colloidal gold nanoparticles and octahedral gold platelets"}, {"measurement": "detoxification / protection against AuCl3 toxicity", "setting": "D. acidovorans ΔdelG [3]", "value": "more protective against AuCl3 toxicity than delftibactin B"}, {"measurement": "gold precipitation in presence of iron", "setting": "[4]", "value": "gold precipitation would proceed in the presence of high concentrations of iron"}, {"measurement": "darkening of test strip", "setting": "[5]", "value": "darkening can be seen"}, {"measurement": "rescue of ΔdelG strain from gold toxicity", "setting": "D. acidovorans ΔdelG [6]", "value": "rescued"}, {"measurement": "solubility on complexing to gold", "setting": "[7]", "value": "abrupt and total loss of solubility"}, {"measurement": "co-precipitation with gold", "setting": "[7]; 2.5 mM AuCl3, end-point assays", "value": "co-precipitate with gold from solution"}, {"measurement": "timescale of creating gold structures from Au3+", "setting": "[8]", "value": "seconds"}, {"measurement": "gold nanoparticle formation (visual inspection)", "setting": "[9]; 10 mM AuCl3 reacted with equimolar chelator", "value": "rapidly undergo a characteristic blackening"}, {"measurement": "concentration of metallophore after AuCl3 exposure", "setting": "[9]; LC-MS, 2 hr exposure, vs unreacted control", "value": "decreased"}, {"measurement": "reaction with gold after pre-exposure to / in presence of iron", "setting": "[9]; equimolar FeCl3", "value": "gold reducing power is reduced"}, {"measurement": "toxicity", "setting": "D. acidovorans ΔdelG [10]", "value": "nontoxic"}, {"measurement": "protection from chronic gold toxicity", "setting": "D. acidovorans ΔdelG [10]; exogenous addition to ΔdelG cultures, 100 μM delftibactin A + 10 μM AuCl3, 84 h", "value": "sufficient to overcome chronic gold toxicity"}]}]}
